Patent US20240360194A1, “New Peptides as Potent and Selective GIP Receptor Agonists” (Sanofi, priority 2021, published 2024)
Numbered stars: 1 amine (or outer) side, 2 acyl side, 3 side chain; on linkers, the order of the positions; unused ones are H or OH. Square brackets hold non-standard residues; d marks the D form. Side chains are listed from the residue outwards. Ends that are not written are not given here. Peptide text beside a SMILES is read from it. * marks the point of attachment. C18 diacid = O=C(O)CCCCCCCCCCCCCCCCC(=O)*; γGlu = O=C(O)[C@H](CCC(=O)[*:2])N[*:1]; αMeV = CC(C)[C@](C)(N)C(=O)O; AEEA = NCCOCCOCC(=O)O; Aib = CC(C)(N)C(=O)O

Key:
[1] = biological target: T1, human GIP receptor (hGIPR) (Homo sapiens, UniProt P48546); assay: In vitro cellular cAMP assay for GIP receptor efficacy (HEK-293 cell line over-expressing receptor); assay type: cell-based; conditions: EC50 hGIPR 0.1% BSA, HEK-293, 0.1% BSA
T1 sequence (P48546 22-466): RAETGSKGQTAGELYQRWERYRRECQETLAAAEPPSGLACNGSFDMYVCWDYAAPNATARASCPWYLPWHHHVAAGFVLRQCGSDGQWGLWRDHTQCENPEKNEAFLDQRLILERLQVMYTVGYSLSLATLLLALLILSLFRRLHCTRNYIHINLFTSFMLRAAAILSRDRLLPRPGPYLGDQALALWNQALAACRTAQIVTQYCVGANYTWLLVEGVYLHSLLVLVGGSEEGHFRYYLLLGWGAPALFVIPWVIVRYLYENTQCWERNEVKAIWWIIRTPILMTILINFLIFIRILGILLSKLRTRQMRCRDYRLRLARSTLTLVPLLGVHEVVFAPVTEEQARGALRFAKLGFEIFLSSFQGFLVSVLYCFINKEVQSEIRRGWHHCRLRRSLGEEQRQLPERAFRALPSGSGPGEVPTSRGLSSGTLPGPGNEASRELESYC

[2] = Solubility assessment (UHPLC-UV of supernatant, target 10 mg/ml); assay type: physicochemical; conditions: pH 7.4, Soluble amount
Summary of the method: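 Peptides at 10 mg/ml (purity-corrected) in 100 mM phosphate pH 7.4, optionally with 2.7 mg/ml m-cresol; gentle agitation 1 h, then 5° C. overnight (24 h). Supernatant after 15 min centrifugation at 2500 RCF quantified by UHPLC-UV, with sequence-based extinction coefficients.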

[3] = biological target: human GLP-1 receptor (hGLP-1R) (Homo sapiens, UniProt P43220); assay: In vitro cellular cAMP assay for GLP-1 receptor efficacy (HEK-293 cell line over-expressing receptor); assay type: cell-based; conditions: HEK-293, 0.1% BSA
human GIP receptor [4] = biological target: T2, human GIP receptor (Homo sapiens, UniProt P48546); assay: In vitro cellular cAMP assay for GIP receptor efficacy (human adipocytes); assay type: cell-based
T2 construct: human adipocytes endogenously expressing the human GIP receptor; host or cells: human preadipocytes (Lonza) differentiated to adipocytes
T2 sequence (P48546 22-466): T1 sequence (P48546 22-466)
Summary of the method: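 Human preadipocytes expanded, then differentiated 6 days (insulin, dexamethasone, PPARγ agonist, 200 μM IBMX, L-thyroxine) before plating at 5000 cells/well. Test compound applied 30 min at room temperature; cAMP measured by HTRF after 1 h with lysis-buffer reagents, read as 665/620 nm fluorescence ratio.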

[5] = biological target: T1, human GIP receptor (hGIPR); assay: Binding assay, displacement of [125I]GIP from HEK-293 membranes over-expressing GIPR (SPA); conditions: [125I]GIP displacement
Summary of the method: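 Membranes from HEK-293 cells over-expressing human GIPR or GLP-1R, isolated by homogenising, sonicating and ultracentrifuging at 100000×g into HEPES/EDTA/NaCl buffer with protease inhibitors, were used for binding.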

human GIP receptor [6] = biological target: T3, human GIP receptor (human, UniProt P48546 22-466); assay: cell-based or functional assay
T3 sequence (looked up): T1 sequence (P48546 22-466)

human GLP-1 receptor = human GLP-1 receptor (human, UniProt P43220 24-463); assay: cell-based or functional assay
human GIP receptor [7] = biological target: T3, human GIP receptor; assay: cell-based or functional assay; remark: listed apart in the source

Sequence of human GLP-1 receptor (hGLP-1R) (P43220 24-463): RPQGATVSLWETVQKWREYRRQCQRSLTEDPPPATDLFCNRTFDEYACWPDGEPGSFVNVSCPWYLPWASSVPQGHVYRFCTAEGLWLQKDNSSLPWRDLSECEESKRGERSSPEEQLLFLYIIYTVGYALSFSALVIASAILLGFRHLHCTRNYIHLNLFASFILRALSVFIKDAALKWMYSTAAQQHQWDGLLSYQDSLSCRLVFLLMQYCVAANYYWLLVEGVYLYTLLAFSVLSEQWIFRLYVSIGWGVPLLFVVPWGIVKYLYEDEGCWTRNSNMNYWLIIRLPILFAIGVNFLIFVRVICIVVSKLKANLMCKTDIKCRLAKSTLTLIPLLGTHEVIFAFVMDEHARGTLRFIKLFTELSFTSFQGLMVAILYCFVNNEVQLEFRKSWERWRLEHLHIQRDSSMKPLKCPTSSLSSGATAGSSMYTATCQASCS

Molecule: CC[C@H](C)[C@H](NC(=O)[C@H](Cc1ccccc1)NC(=O)[C@H](CCC(=O)O)NC(=O)[C@H](CCC(=O)O)NC(=O)[C@H](CCC(N)=O)NC(=O)[C@H](Cc1c[nH]cn1)NC(=O)[C@@H](NC(=O)[C@H](CCCNC(=N)N)NC(=O)[C@H](CC(=O)O)NC(=O)[C@H](CCCCNC(=O)COCCOCCNC(=O)COCCOCCNC(=O)CC[C@H](NC(=O)CCCCCCCCCCCCCCCCC(=O)O)C(=O)O)NC(=O)C(C)(C)NC(=O)[C@@H](NC(=O)[C@H](CO)NC(=O)[C@H](CC(C)C)NC(=O)[C@H](CC(=O)O)NC(=O)[C@H](CO)NC(=O)[C@@H](NC(=O)[C@H](Cc1ccccc1)NC(=O)[C@@H](NC(=O)CNC(=O)[C@H](CCC(=O)O)NC(=O)C(C)(C)NC(=O)[C@@H](N)Cc1ccc(O)cc1)[C@@H](C)O)[C@@H](C)CC)[C@@H](C)CC)[C@@H](C)CC)C(=O)N[C@@H](CCC(=O)O)C(=O)N[C@@H](Cc1c[nH]c2ccccc12)C(=O)N[C@@H](CC(C)C)C(=O)N[C@@H](CC(C)C)C(=O)N[C@@H](C)C(=O)N[C@@H](CCC(N)=O)C(=O)N[C@@H](CCC(=O)O)C(=O)NCC(=O)O [SEQ ID NO: 14, H2N-Y-Aib-E-G-T-F-I-S-D-L-S-I-Aib-K[{AEEA}2-gGlu-C18OH]-D-R-I-H-Q-E-E-F-I-E-W-L-L-A-Q-E-G-OH] (H-Y[Aib]EGTFISDLSI[Aib]K([AEEA-AEEA-γGlu-C18 diacid])DRIHQEEFIEWLLAQEG-OH)
- EC50 [1]: 0.0757 nM

Molecule: CC[C@H](C)[C@H](NC(=O)[C@H](CCCNC(=N)N)NC(=O)[C@H](CC(=O)O)NC(=O)[C@H](CCCCNC(=O)COCCOCCNC(=O)COCCOCCNC(=O)CC[C@H](NC(=O)CCCCCCCCCCCCCCCCC(=O)O)C(=O)O)NC(=O)C(C)(C)NC(=O)[C@@H](NC(=O)[C@H](CO)NC(=O)[C@H](CC(C)C)NC(=O)[C@H](CC(=O)O)NC(=O)[C@H](CO)NC(=O)[C@@H](NC(=O)[C@@](C)(CC)NC(=O)[C@@H](NC(=O)CNC(=O)[C@H](CCC(=O)O)NC(=O)C(C)(C)NC(=O)[C@@H](N)Cc1ccc(O)cc1)[C@@H](C)O)[C@@H](C)CC)[C@@H](C)CC)C(=O)N[C@@H](Cc1c[nH]cn1)C(=O)N[C@@H](CCC(N)=O)C(=O)NC(C)(C)C(=O)N[C@@H](CCC(=O)O)C(=O)N[C@@](C)(Cc1ccccc1)C(=O)N[C@H](C(=O)N[C@@H](CCC(=O)O)C(=O)N[C@@H](Cc1c[nH]c2ccccc12)C(=O)N[C@@H](CC(C)C)C(=O)N[C@@H](CC(C)C)C(=O)N[C@@H](C)C(=O)N[C@@H](CCC(N)=O)C(=O)N[C@@H](CCCNC(=N)N)C(=O)NCC(N)=O)[C@@H](C)CC [SEQ ID NO: 18, H2N-Y-Aib-E-G-T-Iva-I-S-D-L-S-I-Aib-K[{AEEA}2-gGlu-C18OH]-D-R-I-H-Q-Aib-E-Mph-I-E-W-L-L-A-Q-R-G-NH2]
- EC50 [1]: 0.0179 nM

Molecule: CC[C@H](C)[C@H](NC(=O)[C@H](Cc1ccccc1)NC(=O)[C@H](CCC(=O)O)NC(=O)[C@H](CCC(=O)O)NC(=O)[C@H](CCC(N)=O)NC(=O)[C@H](Cc1c[nH]cn1)NC(=O)[C@@H](NC(=O)[C@H](CCCNC(=N)N)NC(=O)[C@H](CC(=O)O)NC(=O)[C@H](CCCCNC(=O)COCCOCCNC(=O)COCCOCCNC(=O)CC[C@H](NC(=O)CCCCCCCCCCCCCCCCC(=O)O)C(=O)O)NC(=O)C(C)(C)NC(=O)[C@@H](NC(=O)[C@H](CO)NC(=O)[C@H](CC(C)C)NC(=O)[C@H](CC(=O)O)NC(=O)[C@H](CO)NC(=O)[C@@H](NC(=O)[C@@](C)(NC(=O)[C@@H](NC(=O)CNC(=O)[C@H](CCC(=O)O)NC(=O)C(C)(C)NC(=O)[C@@H](N)Cc1ccc(O)cc1)[C@@H](C)O)C(C)C)[C@@H](C)CC)[C@@H](C)CC)[C@@H](C)CC)C(=O)N[C@@H](CCC(=O)O)C(=O)N[C@@H](Cc1c[nH]c2ccccc12)C(=O)N[C@@H](CC(C)C)C(=O)N[C@@H](CC(C)C)C(=O)N[C@@H](C)C(=O)N[C@@H](CCC(N)=O)C(=O)NCC(=O)N1CCC[C@H]1C(=O)N[C@@H](CO)C(=O)N[C@@H](CO)C(=O)NCC(=O)N[C@@H](C)C(=O)N1CCC[C@H]1C(=O)N1CCC[C@H]1C(=O)N1CCC[C@H]1C(=O)N[C@@H](CO)C(N)=O [SEQ ID NO: 26, H2N-Y-Aib-E-G-T-Mva-I-S-D-L-S-I-Aib-K[{AEEA}2-gGlu-C18OH]-DRIHQEEFIEWLLAQGPSSGAPPPS-NH2] (H-Y[Aib]EGT[αMeV]ISDLSI[Aib]K([AEEA-AEEA-γGlu-C18 diacid])DRIHQEEFIEWLLAQGPSSGAPPPS-NH2)
- EC50 [1]: 0.0602 nM

Molecule: CC[C@H](C)[C@H](NC(=O)[C@H](Cc1ccccc1)NC(=O)[C@H](CCC(=O)O)NC(=O)C(C)(C)NC(=O)[C@H](CCC(N)=O)NC(=O)[C@H](CCCCNC(=O)COCCOCCNC(=O)COCCOCCNC(=O)CC[C@H](NC(=O)CCCCCCCCCCCCCCCCC(=O)O)C(=O)O)NC(=O)[C@H](CCC(N)=O)NC(=O)[C@H](CCC(=O)O)NC(=O)[C@H](CCC(=O)O)NC(=O)[C@H](CC(C)C)NC(=O)C(C)(C)NC(=O)[C@@H](NC(=O)[C@H](CO)NC(=O)[C@H](CC(C)C)NC(=O)[C@H](CC(=O)O)NC(=O)[C@H](CO)NC(=O)[C@@H](NC(=O)[C@H](Cc1ccccc1)NC(=O)[C@@H](NC(=O)CNC(=O)[C@H](CCC(=O)O)NC(=O)C(C)(C)NC(=O)[C@@H](N)Cc1ccc(O)cc1)[C@@H](C)O)[C@@H](C)CC)[C@@H](C)CC)C(=O)N[C@@H](CCC(=O)O)C(=O)N[C@@H](Cc1c[nH]c2ccccc12)C(=O)N[C@@H](CC(C)C)C(=O)N[C@@H](CC(C)C)C(=O)N[C@@H](C)C(=O)N[C@@H](CCC(N)=O)C(=O)NCC(=O)N1CCC[C@H]1C(=O)N[C@@H](CO)C(=O)N[C@@H](CO)C(=O)NCC(=O)N[C@@H](C)C(=O)N1CCC[C@H]1C(=O)N1CCC[C@H]1C(=O)N1CCC[C@H]1C(=O)N[C@@H](CO)C(N)=O [SEQ ID NO: 36, H2N-Y-Aib-E-G-T-F-I-S-D-L-S-I-Aib-L-E-E-Q-K[{AEEA}2-gGlu-C18OH]-Q-Aib-E-F-I-E-W-L-L-A-Q-G-P-S-S-G-A-P-P-P-S-NH2] (H-Y[Aib]EGTFISDLSI[Aib]LEEQK([AEEA-AEEA-γGlu-C18 diacid])Q[Aib]EFIEWLLAQGPSSGAPPPS-NH2)
- solubility at 24 h [2]: > 10.7 mg/mL
- EC50 [3]: > 10 nM
- EC50 (human GIP receptor [4]; read-out: hGIPR EC50): 0.3 nM
- Emax (human GIP receptor [4]; read-out: hGIPR Emax): 104%
- IC50 [5]: 0.2 nM

B1: SEQ ID NO: 35 (peptide)
peptide: Y[Aib]EGTFISDLSI[Aib]K([AEEA-AEEA-γGlu-C18 diacid])DRIHQEEFIQWLLAQGPSSGAPPPS-NH2
modifications: N-terminus assumed
SMILES: CC[C@H](C)[C@H](NC(=O)[C@H](Cc1ccccc1)NC(=O)[C@H](CCC(=O)O)NC(=O)[C@H](CCC(=O)O)NC(=O)[C@H](CCC(N)=O)NC(=O)[C@H](Cc1c[nH]cn1)NC(=O)[C@@H](NC(=O)[C@H](CCCNC(=N)N)NC(=O)[C@H](CC(=O)O)NC(=O)[C@H](CCCCNC(=O)COCCOCCNC(=O)COCCOCCNC(=O)CC[C@H](NC(=O)CCCCCCCCCCCCCCCCC(=O)O)C(=O)O)NC(=O)C(C)(C)NC(=O)[C@@H](NC(=O)[C@H](CO)NC(=O)[C@H](CC(C)C)NC(=O)[C@H](CC(=O)O)NC(=O)[C@H](CO)NC(=O)[C@@H](NC(=O)[C@H](Cc1ccccc1)NC(=O)[C@@H](NC(=O)CNC(=O)[C@H](CCC(=O)O)NC(=O)C(C)(C)NC(=O)[C@@H](N)Cc1ccc(O)cc1)[C@@H](C)O)[C@@H](C)CC)[C@@H](C)CC)[C@@H](C)CC)C(=O)N[C@@H](CCC(N)=O)C(=O)N[C@@H](Cc1c[nH]c2ccccc12)C(=O)N[C@@H](CC(C)C)C(=O)N[C@@H](CC(C)C)C(=O)N[C@@H](C)C(=O)N[C@@H](CCC(N)=O)C(=O)NCC(=O)N1CCC[C@H]1C(=O)N[C@@H](CO)C(=O)N[C@@H](CO)C(=O)NCC(=O)N[C@@H](C)C(=O)N1CCC[C@H]1C(=O)N1CCC[C@H]1C(=O)N1CCC[C@H]1C(=O)N[C@@H](CO)C(N)=O
notes: Synthetic peptide, 39 residues (Gln at 24)
- EC50 hGIPR 0% HSA (cAMP, HEK-293) (human GIP receptor [6]): 0.24 pM
- EC50 hGIPR 0.1% BSA (cAMP, HEK-293) (human GIP receptor [6]): 10.7 pM
- EC50 hGLP-1R 0.1% BSA (cAMP, HEK-293) (human GLP-1 receptor): > 10 nM
- hGIPR EC50 (cAMP, human adipocytes) (human GIP receptor [7]): 1.3 nM
- hGIPR Emax (cAMP, human adipocytes) (human GIP receptor [7]): 120%
